Experimental data from patent US20160009674A1, “PROTOTYPICAL BRAIN PROTECTIVE ACTIVITY OF TETRAHYDRO-N-METHYL-2,2-DIPHENYL-3-FURANOMETHANAMINE (AE37MET)” (priority 2013, published 2016).
Entries after “also recorded” stand apart in the source; their conditions may differ.

Legend:
[1] = target: N-methyl-D-aspartate (NMDA) receptors; assay: NMDA receptor affinity; assay type: binding
[2] = system: brain ischemia; assay: brain ischemia in mice; assay type: in vivo; settings: for neuroprotection against mice brain ischemia: dose not given
[3] = system: NMDA (10 μM) induced functional excitotoxicity, hippocampal slices; assay: NMDA (10 μM) induced functional excitotoxicity in rat hippocampal slices; settings: for neuroprotection against NMDA induced functional excitotoxicity: hippocampal slices
[4] = target: T1, sigma-1 (Homo sapiens, UniProt Q99720); assay: sigma-1 agonistic activity
T1 sequence (Q99720 whole entry): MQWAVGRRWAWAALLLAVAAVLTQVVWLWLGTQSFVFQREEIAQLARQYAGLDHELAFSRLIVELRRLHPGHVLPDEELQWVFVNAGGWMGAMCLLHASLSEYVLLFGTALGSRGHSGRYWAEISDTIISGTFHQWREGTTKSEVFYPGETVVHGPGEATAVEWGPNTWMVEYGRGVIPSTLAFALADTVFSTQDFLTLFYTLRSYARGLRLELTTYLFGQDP

[5] = system: hippocampal slices; assay: in vitro evaluation of the compounds' own functional excitotoxicity on hippocampal slices
[6] = target: T1, sigma-1; assay: sigma-1 receptor affinity (binding)
[7] = target: sigma-2 receptors (Homo sapiens, UniProt Q5BJF2); assay: sigma-2 receptor affinity (binding)
sigma-2 receptors, sequence (Q5BJF2 whole entry): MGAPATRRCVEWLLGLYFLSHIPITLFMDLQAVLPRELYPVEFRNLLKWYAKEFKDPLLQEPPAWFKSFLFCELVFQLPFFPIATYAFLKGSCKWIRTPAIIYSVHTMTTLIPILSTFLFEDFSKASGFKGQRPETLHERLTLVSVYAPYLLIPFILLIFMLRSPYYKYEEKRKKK

[8] = system: sodium channels; assay: sodium channel affinity; assay type: binding
[9] = target: T2, M2 muscarinic receptors (Homo sapiens, UniProt P08172); assay: M2 muscarinic receptor affinity; assay type: binding
T2 sequence (P08172 1-466): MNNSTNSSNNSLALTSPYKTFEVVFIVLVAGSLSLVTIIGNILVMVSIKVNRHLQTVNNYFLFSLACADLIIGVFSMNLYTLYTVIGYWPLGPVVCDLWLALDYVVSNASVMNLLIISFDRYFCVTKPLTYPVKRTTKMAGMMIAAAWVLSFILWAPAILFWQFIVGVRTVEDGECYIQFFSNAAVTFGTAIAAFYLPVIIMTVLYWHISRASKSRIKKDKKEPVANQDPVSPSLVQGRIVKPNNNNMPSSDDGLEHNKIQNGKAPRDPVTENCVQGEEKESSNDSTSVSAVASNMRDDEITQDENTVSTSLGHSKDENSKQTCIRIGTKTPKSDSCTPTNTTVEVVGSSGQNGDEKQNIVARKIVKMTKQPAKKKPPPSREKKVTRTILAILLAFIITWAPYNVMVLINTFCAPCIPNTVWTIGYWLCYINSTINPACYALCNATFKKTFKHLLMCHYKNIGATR

[10] = target: M3 muscarinic receptors (Homo sapiens, UniProt P20309); assay: M3 muscarinic receptor affinity; assay type: binding
M3 muscarinic receptors (Homo sapiens, UniProt P20309), sequence (P20309 whole entry): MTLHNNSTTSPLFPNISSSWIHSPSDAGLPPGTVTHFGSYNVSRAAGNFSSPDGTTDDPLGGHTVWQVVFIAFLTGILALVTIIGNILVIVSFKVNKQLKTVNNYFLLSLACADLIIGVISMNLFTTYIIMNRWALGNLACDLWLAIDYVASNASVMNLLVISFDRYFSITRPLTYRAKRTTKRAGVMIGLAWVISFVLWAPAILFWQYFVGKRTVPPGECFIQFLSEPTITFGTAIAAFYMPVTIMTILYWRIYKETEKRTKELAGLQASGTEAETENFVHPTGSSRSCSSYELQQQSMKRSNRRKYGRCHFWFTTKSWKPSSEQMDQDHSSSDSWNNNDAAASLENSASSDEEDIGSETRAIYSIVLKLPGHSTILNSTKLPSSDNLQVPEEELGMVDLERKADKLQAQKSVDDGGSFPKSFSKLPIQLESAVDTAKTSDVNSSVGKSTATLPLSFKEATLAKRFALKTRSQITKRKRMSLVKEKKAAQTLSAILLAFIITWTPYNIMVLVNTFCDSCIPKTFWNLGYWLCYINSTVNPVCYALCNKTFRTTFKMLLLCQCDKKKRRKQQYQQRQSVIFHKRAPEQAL

[11] = target: T3, M2 muscarinic receptors (Cavia porcellus, UniProt H0VRN8); assay: functional M2 antagonism, guinea pig left atria
T3 construct: from tissue; host or cells: guinea pig left atria
T3 sequence (H0VRN8 1-466): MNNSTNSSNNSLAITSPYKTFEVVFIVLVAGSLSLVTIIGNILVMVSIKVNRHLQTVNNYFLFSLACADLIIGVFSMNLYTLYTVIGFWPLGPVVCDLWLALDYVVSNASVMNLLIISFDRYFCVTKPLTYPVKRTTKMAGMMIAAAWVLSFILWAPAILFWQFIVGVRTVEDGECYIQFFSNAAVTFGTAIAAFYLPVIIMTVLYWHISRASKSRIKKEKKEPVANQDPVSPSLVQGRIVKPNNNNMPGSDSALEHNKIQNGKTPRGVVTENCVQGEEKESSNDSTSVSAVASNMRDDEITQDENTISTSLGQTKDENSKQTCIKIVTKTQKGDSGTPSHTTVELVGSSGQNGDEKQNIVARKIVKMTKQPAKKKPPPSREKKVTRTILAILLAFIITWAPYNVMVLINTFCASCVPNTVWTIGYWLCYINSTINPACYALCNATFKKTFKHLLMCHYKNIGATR

[12] = target: T4, M3 muscarinic receptors (Cavia porcellus, UniProt H0W1Z3); assay: functional M3 antagonism, guinea pig ileum
T4 construct: from tissue; host or cells: guinea pig ileum
T4 sequence (H0W1Z3 1-590): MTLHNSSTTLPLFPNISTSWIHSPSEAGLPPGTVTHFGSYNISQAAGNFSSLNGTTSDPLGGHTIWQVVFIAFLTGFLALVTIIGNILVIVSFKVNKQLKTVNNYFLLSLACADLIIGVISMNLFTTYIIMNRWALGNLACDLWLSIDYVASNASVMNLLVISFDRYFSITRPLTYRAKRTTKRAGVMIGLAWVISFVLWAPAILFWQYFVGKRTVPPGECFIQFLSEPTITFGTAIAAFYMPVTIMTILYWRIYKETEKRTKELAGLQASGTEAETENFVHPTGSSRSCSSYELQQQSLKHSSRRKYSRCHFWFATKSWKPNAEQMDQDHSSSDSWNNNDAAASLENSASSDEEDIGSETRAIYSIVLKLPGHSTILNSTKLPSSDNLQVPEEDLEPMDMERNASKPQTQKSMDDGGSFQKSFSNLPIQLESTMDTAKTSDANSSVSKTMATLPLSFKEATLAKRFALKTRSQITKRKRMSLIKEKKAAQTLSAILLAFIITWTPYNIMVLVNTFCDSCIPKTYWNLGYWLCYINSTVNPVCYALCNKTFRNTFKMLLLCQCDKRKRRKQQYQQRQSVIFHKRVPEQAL

[13] = system: mitochondrial toxicity of pentylenetetrazole (PTZ); assay: latency of lethality of pentylenetetrazole (PTZ) in mice; assay type: in vivo; settings: PTZ 130 mg/kg ip
[14] = system: Aβ25-35 induced amnesia and neurotoxicity; assay: Aβ25-35 induced amnesia and neurotoxicity in mice (Y-maze, step-through); assay type: in vivo
[15] = system: MES convulsions; assay: Maximal Electrochoc Seizures (MES) in mice; assay type: in vivo; settings: 10 to 30 mg/kg po
[16] = system: PTZ convulsions; assay: Pentylenetetrazole (PTZ) convulsions in mice; assay type: in vivo; settings: 10 to 30 mg/kg po
[17] = system: M2 and M3 muscarinic receptors in the periphery; assay: antagonism of peripheral M2 and M3 muscarinic receptors in mice; assay type: in vivo; settings: from 1 to 10 mg/kg ip
[18] = system: immobility; assay: forced swimming (Porsolt) test in mice; assay type: in vivo; settings: from 5 mg/kg po
[19] = memory perturbations in mice; settings: 0.1 to 45 mg/kg, per os

CN(C)CC1COC(c2ccccc2)(c2ccccc2)C1 (stereo not shown) [AE14, tetrahydro-N,N-dimethyl-5,5-diphenyl-3-furanomethanamine]
IC50 [1]: > 10 µM | neuroprotection against mice brain ischemia [2]: inactive | neuroprotection against NMDA induced functional excitotoxicity [3]: no significant neuroprotection | sigma-1 agonistic activity [4]: high and selective sigma-1 agonistic activity | excitotoxic effects of the compound itself (functional excitotoxicity) [5]: significant excitoneurotoxic effects

CNCC1CCOC1(c1ccccc1)c1ccccc1 (stereo not shown) [AE37Met, tetrahydro-N-methyl-2,2-diphenyl-3-furanomethanamine]
IC50 [6]: 0.67 µM | IC50 [7]: > 10 µM | IC50 [1]: 1 µM | IC50 [8]: 5.7 µM | IC50 [9]: 2.77 µM | IC50 [10]: 4.35 µM | concentration from which significant functional antagonism (M2) [11]: ≥ 3.0 µM | concentration from which significant functional antagonism (M3) [12]: ≥ 3.0 µM | increase of latency of lethality of PTZ ([13]; AE37Met 3.10 mg/kg po (so in the source)): 3.10 fold | increase of latency of lethality of PTZ ([13]; AE37Met 30 mg/kg po): 18 fold | antagonism of Aβ25-35 induced amnesia and neurotoxicity ([14]; 0.3 to 3 mg/kg ip, mice): antagonized | antiamnesic action on co-administration with IAChEases ([14]; co-administered with Rivastigmine or Donepezil, Y-maze, step-through, intracerebral soluble amyloid 25-35, mice): higher than the sum of the antiamnesic effects | protection against MES convulsions [15]: protected; also recorded: high protective effects | protection against PTZ convulsions [16]: protected; also recorded: high protective effects | protection against brain ischemia ([2]; 5 to 15 mg/kg ip): protected; also recorded: significant antagonism | antagonistic effects against NMDA induced functional excitotoxicity ([3]; AE37Met 1 to 10 μM, rat hippocampal slices): first antagonistic effects | neuroprotection against NMDA induced functional excitotoxicity [3]: high dose (concentration)-dependant neuroprotection | antagonistic effects on M2 and M3 muscarinic receptors in the periphery [17]: antagonistic effects | anti-immobility activity in the Porsolt test [18]: high anti-immobility activity | memory perturbations [19]: no memory perturbations | excitotoxic effects of the compound itself (functional excitotoxicity) [5]: no excitotoxic effects

CN(C)CC1CCOC1(c1ccccc1)c1ccccc1 (stereo not shown) [AE37, tetrahydro-N,N-dimethyl-2,2-diphenyl-3-furanomethanamine]
IC50 [1]: 8 µM | neuroprotection against mice brain ischemia [2]: inactive | neuroprotection against NMDA induced functional excitotoxicity [3]: no significant neuroprotection | sigma-1 agonistic activity [4]: sub-micromolar and selective sigma-1 agonism | excitotoxic effects of the compound itself (functional excitotoxicity) [5]: significant excitoneurotoxic effects
